From patent publication US10117858B2, “Pyridine and pyrazine derivative for the treatment of CF” (Novartis AG, priority 2010, dated 2018)

The molecules below were run against ΔF508-CFTR (Homo sapiens (Human), UniProt P13569, DEL508-508) (assay: CFTR potentiator assays (membrane potential, IonWorks Quattro, Ussing chamber ion transport); patent does not say which gave the EC50). Settings: Table 1, representative compounds; data measurements described above; read-out: EC50.
ΔF508-CFTR, sequence (P13569 other isoform, or with tags, fused parts or gaps del F508-F508): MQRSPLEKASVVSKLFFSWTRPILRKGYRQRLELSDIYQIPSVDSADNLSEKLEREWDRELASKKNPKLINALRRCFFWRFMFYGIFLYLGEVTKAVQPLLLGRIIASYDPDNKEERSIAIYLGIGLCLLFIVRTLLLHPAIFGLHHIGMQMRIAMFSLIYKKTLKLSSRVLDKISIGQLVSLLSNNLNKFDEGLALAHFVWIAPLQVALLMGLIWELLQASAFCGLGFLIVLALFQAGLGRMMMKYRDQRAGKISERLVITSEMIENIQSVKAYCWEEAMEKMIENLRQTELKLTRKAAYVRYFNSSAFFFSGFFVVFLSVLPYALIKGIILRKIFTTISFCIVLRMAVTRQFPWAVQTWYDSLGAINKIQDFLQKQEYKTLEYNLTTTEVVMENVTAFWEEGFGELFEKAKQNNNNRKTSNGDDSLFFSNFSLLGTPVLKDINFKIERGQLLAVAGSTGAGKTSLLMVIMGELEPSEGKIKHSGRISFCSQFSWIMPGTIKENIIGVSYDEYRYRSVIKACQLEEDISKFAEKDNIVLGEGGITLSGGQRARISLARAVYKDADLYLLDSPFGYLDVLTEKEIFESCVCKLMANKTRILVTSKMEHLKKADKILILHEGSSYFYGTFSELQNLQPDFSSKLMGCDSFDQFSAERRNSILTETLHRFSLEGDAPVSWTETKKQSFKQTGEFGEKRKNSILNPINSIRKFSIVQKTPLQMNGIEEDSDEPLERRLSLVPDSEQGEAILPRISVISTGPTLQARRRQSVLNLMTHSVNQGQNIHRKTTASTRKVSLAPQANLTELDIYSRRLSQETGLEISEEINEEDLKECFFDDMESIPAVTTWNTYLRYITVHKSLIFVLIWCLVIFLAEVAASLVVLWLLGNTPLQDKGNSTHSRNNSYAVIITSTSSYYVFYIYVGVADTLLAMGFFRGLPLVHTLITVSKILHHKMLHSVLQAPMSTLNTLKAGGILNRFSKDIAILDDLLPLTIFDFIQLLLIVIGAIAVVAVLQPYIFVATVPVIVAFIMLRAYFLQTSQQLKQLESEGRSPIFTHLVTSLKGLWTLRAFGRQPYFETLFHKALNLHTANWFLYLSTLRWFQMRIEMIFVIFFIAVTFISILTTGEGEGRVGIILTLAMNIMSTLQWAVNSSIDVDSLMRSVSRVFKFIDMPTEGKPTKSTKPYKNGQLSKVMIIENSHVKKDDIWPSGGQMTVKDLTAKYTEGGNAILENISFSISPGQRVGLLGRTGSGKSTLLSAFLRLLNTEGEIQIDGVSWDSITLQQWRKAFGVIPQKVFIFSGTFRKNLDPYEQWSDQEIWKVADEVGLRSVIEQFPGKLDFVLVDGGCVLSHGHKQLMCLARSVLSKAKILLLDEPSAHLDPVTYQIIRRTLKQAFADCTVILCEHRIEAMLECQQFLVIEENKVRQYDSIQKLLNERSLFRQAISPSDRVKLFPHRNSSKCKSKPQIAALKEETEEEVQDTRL
Type: cell-based
Excerpt: CFTR activity can be quantified by measuring the transmembrane potential. The means for measuring the transmembrane potential in a biological system can employ a number of methods including electrophysiological and optical fluorescence-based membrane potential assays.
The optical membrane potential assay utilises a negatively charged potentiometric dye, such as the FLIPR membrane potential dye (FMP) (see Baxter D F, Kirk M, Garcia A F, Raimondi A, Holmqvist M H, Flint K K, Bojanic D, Distefano P S, Curtis R, Xie Y. ‘A novel membrane potential-sensitive fluorescent dye improves cell-based assays for ion channels.’ J Biomol Screen. 2002 February; 7(1):79-85) which when extracellular is bound to a quenching agent. Upon cellular depolarisation the negatively charged dye redistributes to the intracellular compartment, unbinding from the membrane impermeant quench agent, yielding an increase in fluorescence. This change in fluorescence is proportional to the change in transmembrane potential which can result from the activity of CFTR. The changes in fluorescence can be monitored in real time by an appropriately equipped fluorescence detector such as the FLIPR (fluorometric imaging plate reader) in 96 or 384-well microtitre plates.
Chinese hamster ovary (CHO) cells stably expressing the ΔF508-CFTR channel were used for membrane potential experiments. Cells were maintained at 37° C. in 5% v/v CO2 at 100% humidity in Modified Eagles medium (MEM) supplemented with 8% v/v foetal calf serum, 100 µg/ml methotrexate and 100 U/ml penicillin/streptomycin. Cells were grown in 225 cm^2 tissue culture flasks. For membrane potential assays cells were seeded into 96 well plates at 40,000 cells per well, allowed to adhere and then maintained at 26° C. for 48 h to facilitate channel insertion.
The membrane potential screening assay utilised a low chloride ion containing extracellular solution (˜5 mM) combined with a double addition protocol. The first addition was of buffer with or without test compound followed 5 minutes later by an addition of forskolin (1-20 μM)—this protocol favours maximum chloride efflux in response to ΔF508-CFTR activation. The ΔF508-CFTR mediated chloride ion efflux leads to a membrane depolarisation which is optically monitored by the FMP dye.
Low chloride extracellular (mM): 120 Na-gluconate, 1.2 CaCl2, 3.3 KH2PO4, 0.8 K2HPO4, 1.2 MgCl2, 10.0 D-glucose, 20.0 HEPES, pH 7.4 with NaOH FMP dye: made up as per manufacturers' instructions in low chloride extracellular solution detailed above, at 10× final concentration, and stored as 1 mL aliquots at −20° C.
CFTR activity can also be quantified electrophysiologically using the whole-cell configuration of the patch clamp technique (Hamill et al Pflugers Acrhive 1981). This assay directly measures the currents associated with chloride flow through CFTR channels whilst either maintaining or adjusting the transmembrane voltage. This assay can use either single glass micropipettes or parallel planar arrays to measure CFTR activity from native or recombinant cell systems. Currents measured using parallel planar arrays can be quantified using an appropriately equipped instrument such as the IonWorks Quattro (Molecular Devices) or the Qpatch (Sophion). The Quattro system can measure CFTR currents from either a single cell per recording well (HT configuration) or alternatively from a population of 64 cells per well (Population Patch Clamp PPC) (Finkel A, Wittel A, Yang N, Handran S, Hughes J, Costantin J. ‘Population patch clamp improves data consistency and success rates in the measurement of ionic currents.’ J Biomol Screen. 2006 August; 11(5):488-96).
Chinese hamster ovary (CHO) cells stably expressing the ΔF508-CFTR channel were used for IonWorks Quattro experiments. […]
`CC(O)(CNC(=O)c1nc(-c2ccc(Cl)cc2Cl)c(C(F)(F)F)cc1N)C(F)(F)F` (single isomer, unassigned) [Example 10, 3-Amino-6-(2,4-dichloro-phenyl)-5-trifluoromethyl-pyridine-2-carboxylic acid (3,3,3-trifluoro-2-hydroxy-2-methyl-propyl)-amide] showed an EC50 of 0.112 µM.
`CC(O)(CNC(=O)c1nc(-c2ccc(Cl)cc2Cl)c(C(F)(F)F)cc1N)C(F)(F)F` (single isomer, unassigned) [Example 9, 3-Amino-6-(2,4-dichloro-phenyl)-5-trifluoromethyl-pyridine-2-carboxylic acid (3,3,3-trifluoro-2-hydroxy-2-methyl-propyl)-amide] gave an EC50 of 0.09 µM.
Work on `COc1nc(C(=O)NC[C@@](C)(O)C(F)(F)F)c(N)cc1C(F)(F)F` [Example 6, 3-Amino-6-methoxy-5-trifluoromethyl-pyridine-2-carboxylic acid ((R)-3,3,3-trifluoro-2-hydroxy-2-methyl-propyl)-amide] yielded an EC50 of 0.426 µM.
Work on `COc1nc(C(=O)NC[C@](C)(O)C(F)(F)F)c(N)cc1C(F)(F)F` [Example 5, 3-Amino-6-methoxy-5-trifluoromethyl-pyridine-2-carboxylic acid ((S)-3,3,3-trifluoro-2-hydroxy-2-methyl-propyl)-amide] yielded an EC50 of 0.05 µM.

Same assay, conditions: data measurements described above; read-out: CFTR EC50
`Nc1cc(C(F)(F)F)c(Br)nc1C(=O)NCC(=O)O` [2-(3-amino-6-bromo-5-(trifluoromethyl)picolinamido)acetic acid] gave an EC50 greater than 5 µM.
With `CCN1CCC[C@H]1CNC(=O)c1nc(Br)c(C(F)(F)F)nc1N` [(S)-3-amino-6-bromo-N-((1-ethylpyrrolidin-2-yl)methyl)-5-(trifluoromethyl)pyrazine-2-carboxamide] the EC50 was greater than 5 µM.
For `Cn1ccnc1CNC(=O)c1nc(Br)c(C(F)(F)F)nc1N` [3-amino-6-bromo-N-((1-methyl-1H-imidazol-2-yl)methyl)-5-(trifluoromethyl)pyrazine-2-carboxamide], the EC50 was greater than 5 µM.
Molecule `Cn1ccc(CNC(=O)c2nc(Br)c(C(F)(F)F)nc2N)n1` [3-amino-6-bromo-N-((1-methyl-1H-pyrazol-3-yl)methyl)-5-(trifluoromethyl)pyrazine-2-carboxamide] has an EC50 greater than 5 µM.
`Cn1ccc2ccc(-c3nc(C(=O)NCC(=O)c4ccc(F)cc4)c(N)cc3C(F)(F)F)cc21` [3-amino-N-(2-(4-fluorophenyl)-2-oxoethyl)-6-(1-methyl-1H-indol-6-yl)-5-(trifluoromethyl)picolinamide] showed an EC50 greater than 5 µM.
Molecule `Cc1cc(C(N)=O)ccc1-c1nc(C(=O)NCC(=O)c2ccc(F)cc2)c(N)cc1C(F)(F)F` [3-amino-6-(4-carbamoyl-2-methylphenyl)-N-(2-(4-fluorophenyl)-2-oxoethyl)-5-(trifluoromethyl)picolinamide] has an EC50 greater than 5 µM.
Molecule `Nc1nc(C(F)(F)F)c(Br)nc1C(=O)NCCc1ccncc1` [3-amino-6-bromo-N-(2-(pyridin-4-yl)ethyl)-5-(trifluoromethyl)pyrazine-2-carboxamide] has an EC50 greater than 5 µM.
Molecule `Cn1cncc1CNC(=O)c1nc(Br)c(C(F)(F)F)nc1N` [3-amino-6-bromo-N-((1-methyl-1H-imidazol-5-yl)methyl)-5-(trifluoromethyl)pyrazine-2-carboxamide] has an EC50 greater than 5 µM.
Work on `CNc1cc(C(F)(F)F)c(Br)nc1C(=O)NCC(C)(O)C(F)(F)F` (centres unmarked) [6-bromo-3-(methylamino)-N-(3,3,3-trifluoro-2-hydroxy-2-methylpropyl)-5-(trifluoromethyl)picolinamide] yielded an EC50 greater than 5 µM.
`Cn1cnc(CNC(=O)c2nc(Br)c(C(F)(F)F)nc2N)c1` [3-amino-6-bromo-N-((1-methyl-1H-imidazol-4-yl)methyl)-5-(trifluoromethyl)pyrazine-2-carboxamide] showed an EC50 greater than 5 µM.
Molecule `Cn1nccc1CNC(=O)c1nc(Br)c(C(F)(F)F)nc1N` [3-amino-6-bromo-N-((1-methyl-1H-pyrazol-5-yl)methyl)-5-(trifluoromethyl)pyrazine-2-carboxamide] has an EC50 greater than 5 µM.
Molecule `CN1CCN(C(=O)c2nc(Br)c(C(F)(F)F)nc2N)CC1c1ccccc1` (centres unmarked) [(3-amino-6-bromo-5-(trifluoromethyl)pyrazin-2-yl)(4-methyl-3-phenylpiperazin-1-yl)methanone] has an EC50 greater than 5 µM.
For `CN1CCN(C(=O)c2nc(Br)c(C(F)(F)F)nc2N)CC1` [(3-amino-6-bromo-5-(trifluoromethyl)pyrazin-2-yl)(4-methylpiperazin-1-yl)methanone], the EC50 was greater than 5 µM.
With `CN(Cc1ccccc1)C(=O)c1nc(Br)c(C(F)(F)F)nc1N` [3-amino-N-benzyl-6-bromo-N-methyl-5-(trifluoromethyl)pyrazine-2-carboxamide] the EC50 was greater than 5 µM.
`CC(C)CN(C)C(=O)c1nc(Br)c(C(F)(F)F)nc1N` [3-amino-6-bromo-N-isobutyl-N-methyl-5-(trifluoromethyl)pyrazine-2-carboxamide] was tested, and the EC50 was greater than 5 µM.
Molecule `Nc1nc(C(F)(F)F)c(Br)nc1C(=O)NCc1ncn2ccccc12` [3-amino-6-bromo-N-(imidazo[1,5-a]pyridin-1-ylmethyl)-5-(trifluoromethyl)pyrazine-2-carboxamide] has an EC50 greater than 5 µM.
`CN1CCN[C@H](CNC(=O)c2nc(Br)c(C(F)(F)F)nc2N)C1` [(R)-3-amino-6-bromo-N-((4-methylpiperazin-2-yl)methyl)-5-(trifluoromethyl)pyrazine-2-carboxamide] gave an EC50 greater than 5 µM.
For `Nc1nc(C(F)(F)F)c(Br)nc1C(=O)NCCc1cccnc1` [3-amino-6-bromo-N-(2-(pyridin-3-yl)ethyl)-5-(trifluoromethyl)pyrazine-2-carboxamide], the EC50 was greater than 5 µM.
With `CN(C)S(=O)(=O)c1cccc(-c2nc(C(=O)NCC(=O)c3ccc(F)cc3)c(N)cc2C(F)(F)F)c1` [3-amino-6-(3-(N, N-dimethylsulfamoyl)phenyl)-N-(2-(4-fluorophenyl)-2-oxoethyl)-5-(trifluoromethyl)picolinamide] the EC50 was greater than 5 µM.
`Nc1nc(C(F)(F)F)c(Br)nc1C(=O)NCc1cn2ccccc2n1` [3-amino-6-bromo-N-(imidazo[1,2-a]pyridin-2-ylmethyl)-5-(trifluoromethyl)pyrazine-2-carboxamide] gave an EC50 greater than 5 µM.
`Nc1cc(C(F)(F)F)c(-c2ccc3c(c2)CCNC3=O)nc1C(=O)NCC(=O)c1ccc(F)cc1` [3-amino-N-(2-(4-fluorophenyl)-2-oxoethyl)-6-(1-oxo-1,2,3,4-tetrahydroisoquinolin-6-yl)-5-(trifluoromethyl)picolinamide] showed an EC50 greater than 5 µM.
`CC(O)(CNC(=O)c1nc(O)c(C(F)(F)F)cc1N)C(F)(F)F` (centres unmarked) [3-amino-6-hydroxy-N-(3,3,3-trifluoro-2-hydroxy-2-methylpropyl)-5-(trifluoromethyl)picolinamide] showed an EC50 greater than 5 µM.
`CN(C)CCCOc1ccc(-c2nc(C(=O)NCC(=O)c3ccc(F)cc3)c(N)nc2C(F)(F)F)cn1` [3-amino-6-(6-(3-(dimethylamino)propoxy)pyridin-3-yl)-N-(2-(4-fluorophenyl)-2-oxoethyl)-5-(trifluoromethyl)pyrazine-2-carboxamide] gave an EC50 greater than 5 µM.
For `Cc1ccc(C)n1-c1cc(C(F)(F)F)c(On2nnc3cccnc32)nc1C(=O)NCC(C)(O)C(F)(F)F` (centres unmarked) [6-((3H-[1,2,3]triazolo[4,5-b]pyridin-3-yl)oxy)-3-(2,5-dimethyl-1H-pyrrol-1-yl)-N-(3,3,3-trifluoro-2-hydroxy-2-methylpropyl)-5-(trifluoromethyl)picolinamide], the EC50 was greater than 5 µM.
`Cc1ccc(-c2nc(C(=O)NCC(=O)c3ccc(F)cc3)c(N)cc2C(F)(F)F)cc1C` [3-amino-6-(3,4-dimethylphenyl)-N-(2-(4-fluorophenyl)-2-oxoethyl)-5-(trifluoromethyl)picolinamide] showed an EC50 greater than 5 µM.
